Laboratory results taken from patent publication US20020115723A1, “Cysteine derivatives” (AJINOMOTO CO., INC., priority 1998, published 2002).

How the values were obtained:
NF-κB = assay: Test on the function of inhibiting the activation of NF-κB induced by ultraviolet rays (gel shift assay); assay type: cell-based, human; conditions: for Inhibition ratio (%) of NF-κB activation: human epidermal cells, UVB 50 mJ/cm^2
Protocol: Test on the Function of Inhibiting the Activation of NF-κB Induced by Ultraviolet Rays.
After 18 hours had elapsed, the culture medium was substituted by a phenol red-free medium. The cells were exposed to ultraviolet rays (UVB: 50 mJ/cm^2) from an ultraviolet irradiator “Dermaray M-DMR-80” (ex Toshiba Medical Supply Co., Ltd.). After 4 to 5 hours had elapsed, the cells were collected, and the nucleoprotein was extracted therefrom in a manner known per se in the art. From the resulting nucleoprotein, the activated NF-κB was detected in accordance with the gel shift assay. The amount of the NF-κB was determined by measuring the radioactive value of the NF-κB band with the use of a bioimaging analyzer “BAS 2000” (ex Fuji Film Co., Ltd.).
The inhibition ratio of the activation of the NF-κB of the test compounds was calculated from the below-described formula (1).
Inhibition ratio of NF-κB activation (%)={1−(A1-A3)/(A2-A3)}×100 (1)
A1: radioactive value of the NF-κB upon addition of a test compound
A2: radioactive value of NF-κB when a test compound is not added
A3: radioactive value of NF-κB when a test compound is not added and is not exposed to ultraviolet rays.

Hairless mice (SKH-1) = assay: Test on inhibiting function of wrinkles formation induced by ultraviolet rays (No. 2), Components (A) and (B) in combination; assay type: in vivo, mouse; design: scale not given here; conditions: 5% alone
Protocol: Hairless mice (SKH-1, female, 5-6 weeks old) were exposed to ultraviolet rays (UVB) three times/week (Monday, Wednesday and Friday) for 5 weeks, each at 50 to 100 mJ/cm^2 by using the above-described “Dermaray M-DMR-80” (ex Toshiba Medical Supply Co., Ltd.). The test compound (N,N′-diacetyl-L-cystine dimethyl ester) was dissolved in a mixed solvent of propylene glycol, ethanol and water, and was applied to the back portion of each of the mice in an amount of 100 μl, 30 to 60 minutes before exposure to ultraviolet rays, just after the completion of the exposure, and on the days free from exposure to ultraviolet rays (Sunday, Tuesday, Thursday and Saturday). From two weeks after the exposure had started, the wrinkles formed on the back portion of each mouse were evaluated once a week based on the below-described standards, and they were indicated as scores. In addition, the function of the inventive compound for inhibiting wrinkle formation induced by ultraviolet rays was judged based on the below-described judging standards.
Test on Inhibiting Function of Wrinkles Formation Induced by Ultraviolet Rays (No. 2)
Function of suppressing ultraviolet ray-induced wrinkles formation by the synergistic effects when Components (A) and (B) were used in combination, was judged in a similar manner to Test Example 2. Fifteen to twenty mice were divided into 4 groups, that is, a 1st group to which a mixed solvent of propylene glycol, ethanol and water was to be applied, a 2nd group to which a solution of only Component (A) dissolved in the above-described solvent was to be applied, a 3rd group to which a solution of only Component (B) dissolved in the above-described solvent was to be applied, and a 4th group to which a solution of both Components (A) and (B) dissolved in the above-described solvent was to be applied. An average score of each group was determined.

AP-1 = assay: Test on the function of inhibiting the AP-1 activation induced by ultraviolet rays (gel shift assay); assay type: cell-based, human; conditions: single compound
Protocol: Test on the Function of Inhibiting the AP-1 Activation Induced by Ultraviolet Rays.
In a similar manner to Test Example 1, a nucleoprotein was obtained. Then, the activated AP-1 was detected by the gel shift assay. The radioactive value of the AP-1 band was measured as in Test Example 1, whereby the amount of the AP-1 was determined. The AP-1 activation inhibiting ratio of the test compounds was calculated by the below-described equation (2). The results of the test compounds according to the present invention are shown below in Table 4a, while those of the comparative compounds are shown below in Table 4b.
AP-1 activation inhibiting ratio (%)={1−(B1-B3)/(B2-B3)}×100 (2)
B1: radioactive value of the AP-1 band upon addition of a test compound.
B2: radioactive value of the AP-1 band when a test compound is not added.
B3: radioactive value of the AP-1 band when a test compound is not added and is not exposed to ultraviolet rays.

Row | Compound | Inhibition ratio (%) of NF-κB activation (NF-κB; addition concentration 0.01 mM) | Inhibition ratio (%) of NF-κB activation (NF-κB; addition concentration 0.1 mM) | further results
1 | COC(=O)[C@H](CCSSCC[C@H](NC(C)=O)C(=O)OC)NC(C)=O (racemic) [N,N′-diacetyl -DL-homocystine dimethyl ester] | 10% | 46% | 
2 | Cc1c(C)c2c(c(C)c1O)CCC(C)(CCCC(C)CCCC(C)CCCC(C)C)O2 (racemic) [dl-α-tocopherol] |  |  | Wrinkle score (group average) (Hairless mice (SKH-1); 2nd week): 2.0; Wrinkle score (group average) (Hairless mice (SKH-1); 3rd week): 3.0; Wrinkle score (group average) (Hairless mice (SKH-1); 4th week): 2.5; Wrinkle score (group average) (Hairless mice (SKH-1); 5th week): 3.5; AP-1 activation Inhibiting ratio (%) (AP-1; 10 μM): 5%; AP-1 activation Inhibiting ratio (%) (AP-1; 100 μM): −1%
3 | COc1ccc(C(=O)CC(=O)c2ccc(C(C)(C)C)cc2)cc1 [4-tert-butyl-4′-methoxybenzoylmethane] |  |  | AP-1 activation Inhibiting ratio (%) (AP-1; 1 μM): −14%; AP-1 activation Inhibiting ratio (%) (AP-1; 10 μM): 17%
4 | CCOC(=O)[C@@H](N)CSSC[C@H](N)C(=O)OCC [L-cystine diethyl ester] |  | 50% | Inhibition ratio (%) of NF-κB activation (NF-κB; addition concentration 0.5 mM): >100%
5 | CC(=O)N[C@@H](CSSC[C@H](NC(C)=O)C(=O)O)C(=O)O [N,N′ -diacetyl-L-cystine, N,N′-diacetyl-L-cystine, reference compound] |  |  | Inhibition ratio (%) of NF-κB activation (NF-κB; addition concentration 10 mM): 48%; Inhibition ratio (%) of NF-κB activation (NF-κB; addition concentration 30 mM): 67%
6 | CCCC(=O)N[C@@H](CSSC[C@H](NC(=O)CCC)C(N)=O)C(N)=O [N,N′-di(n-butyryl)-L-cystine diamide] | 45% | 11% | 
7 | CCCC(=O)N[C@@H](CSSC[C@H](NC(=O)CCC)C(=O)OC)C(=O)OC [N,N′-di(n-butyryl)-L-cystine dimethyl ester] | 52% | 79% | 
8 | CCCCCCCCCC(=O)N[C@@H](CSSC[C@H](NC(=O)CCCCCCCCC)C(=O)OC)C(=O)OC [N,N′-di(n-decanoyl)-L-cystine dimethyl ester] | 56% | 68% | 
9 | CCCCCCC(=O)N[C@@H](CSSC[C@H](NC(=O)CCCCCC)C(=O)OC)C(=O)OC [N,N′-di(n-heptanoyl)-L-cystine dimethyl ester] | 25% | 103% | 
10 | CCCCCC(=O)N[C@@H](CSSC[C@H](NC(=O)CCCCC)C(=O)OC)C(=O)OC [N,N′-di(n-hexanoyl)-L-cystine dimethyl ester] | 43% | 77% | 
11 | CCCCCCCC(=O)N[C@@H](CSSC[C@H](NC(=O)CCCCCCC)C(=O)OC)C(=O)OC [N,N′-di(n-octanoyl)-L-cystine dimethyl ester] | 33% | 91% | 
12 | CCC(=O)N[C@@H](CSSC[C@H](NC(=O)CC)C(=O)OC)C(=O)OC [N,N′-di(n-propionyl)-L-cystine dimethyl ester] | 17% | 54% | 
13 | CCCCC(=O)N[C@@H](CSSC[C@H](NC(=O)CCCC)C(N)=O)C(N)=O [N,N′-di(n-valeryl)-L-cystine diamide] | 8% | 53% | 
14 | CCCCC(=O)N[C@@H](CSSC[C@H](NC(=O)CCCC)C(=O)OC)C(=O)OC [N,N′-di(n-valeryl)-L-cystine dimethyl ester] | 18% | 64% | 
15 | CCOC(=O)[C@H](CSSC[C@H](NC(C)=O)C(=O)OCC)NC(C)=O [N,N′-diacetyl-L-cystine diethyl ester] | 37% | 107% | 
16 | CC(=O)N[C@@H](CSSC[C@H](NC(C)=O)C(=O)OC(C)C)C(=O)OC(C)C [N,N′-diacetyl-L-cystine diisopropyl ester] | 19% | 48% | 
17 | CCCCCCCCCCCC(=O)N[C@@H](CSSC[C@H](NC(=O)CCCCCCCCCCC)C(=O)OC)C(=O)OC [N,N′-dilauroyl-L-cystine dimethyl ester] | 52% | 59% | 
18 | COC(=O)[C@H](CSC(C)=O)NC(C)=O [N,S-diacetyl-L-cystine methyl ester] | 20% | 31% | 
19 | CCOC(=O)[C@H](CSSC[C@H](N)C(=O)O)NC(C)=O [N-acetyl-L-cystine ethyl ester] | 31% | 74% | 
20 | CC(=O)N[C@@H](CSSC[C@H](N)C(=O)O)C(=O)OC(C)C [N-acetyl-L-cystine isopropylester] | 21% | 82% | 
21 | COC(=O)[C@H](CSSC[C@H](N)C(=O)O)NC(C)=O [N-acetyl-L-cystine methyl ester] | 28% | 95% | 
22 | CCCCCCCCCCCC(=O)N[C@@H](CSSC[C@H](N)C(=O)O)C(=O)OC [N-lauroyl-L-cystine methyl ester] | 36% | 43% | 
23 | CCCCCCCCCCCC(=O)N[C@@H](CSSC[C@H](N)C(=O)O)C(=O)O [N-lauroyl-L-cystine] |  | 14% | Inhibition ratio (%) of NF-κB activation (NF-κB; addition concentration 0.5 mM): 86%
24 | O=C(O)c1ccccc1O [Salicylic acid] |  |  | Wrinkle score (group average) (Hairless mice (SKH-1); 2nd week): 2.0; Wrinkle score (group average) (Hairless mice (SKH-1); 3rd week): 1.5; Wrinkle score (group average) (Hairless mice (SKH-1); 4th week): 1.5; Wrinkle score (group average) (Hairless mice (SKH-1); 5th week): 2.5
25 | CC1(C)[C@@H](O)CC[C@]2(C)[C@H]3C(=O)C=C4[C@@H]5C[C@@](C)(C(=O)O)CC[C@]5(C)CC[C@@]4(C)[C@]3(C)CC[C@@H]12 [glycyrrhetinic acid] |  |  | AP-1 activation Inhibiting ratio (%) (AP-1; 10 μM): 2%; AP-1 activation Inhibiting ratio (%) (AP-1; 100 μM): −104%
26 | CC1(C)[C@@H](O[C@H]2O[C@H](C(=O)O)[C@@H](O)[C@H](O)[C@H]2O[C@@H]2O[C@H](C(=O)O)[C@@H](O)[C@H](O)[C@H]2O)CC[C@]2(C)[C@H]3C(=O)C=C4[C@@H]5C[C@@](C)(C(=O)O)CC[C@]5(C)CC[C@@]4(C)[C@]3(C)CC[C@@H]12 [glycyrrhizic acid] |  |  | AP-1 activation Inhibiting ratio (%) (AP-1; 0.1 mM): 3%; AP-1 activation Inhibiting ratio (%) (AP-1; 1 mM): −70%
27 | S=C(S)N1CCCC1 [pyrrolidine dithiocarbamate, reference compound] | 9% |  | Inhibition ratio (%) of NF-κB activation (NF-κB; addition concentration 0.005 mM): −2%; NF-κB activation inhibiting function (in words) (NF-κB; summary of Tables 2a and 2b): did not exhibit the NF-κKB activation inhibiting function
